Data on three molecules can be found in paper PMC10578352, “Identification of a Protein Arginine Methyltransferase 7 (PRMT7)/Protein Arginine Methyltransferase 9 (PRMT9) Inhibitor” (Journal of Medicinal Chemistry, 2023).

The target of one test is T1, PRMT7 (Homo sapiens, UniProt Q9NVM4).
T1 construct: PRMT7 (residues 2–692, C-terminus); with an N-terminal His-tag; His (N); purchased Reaction Biology Corporation
T1 sequence (Q9NVM4 2-692): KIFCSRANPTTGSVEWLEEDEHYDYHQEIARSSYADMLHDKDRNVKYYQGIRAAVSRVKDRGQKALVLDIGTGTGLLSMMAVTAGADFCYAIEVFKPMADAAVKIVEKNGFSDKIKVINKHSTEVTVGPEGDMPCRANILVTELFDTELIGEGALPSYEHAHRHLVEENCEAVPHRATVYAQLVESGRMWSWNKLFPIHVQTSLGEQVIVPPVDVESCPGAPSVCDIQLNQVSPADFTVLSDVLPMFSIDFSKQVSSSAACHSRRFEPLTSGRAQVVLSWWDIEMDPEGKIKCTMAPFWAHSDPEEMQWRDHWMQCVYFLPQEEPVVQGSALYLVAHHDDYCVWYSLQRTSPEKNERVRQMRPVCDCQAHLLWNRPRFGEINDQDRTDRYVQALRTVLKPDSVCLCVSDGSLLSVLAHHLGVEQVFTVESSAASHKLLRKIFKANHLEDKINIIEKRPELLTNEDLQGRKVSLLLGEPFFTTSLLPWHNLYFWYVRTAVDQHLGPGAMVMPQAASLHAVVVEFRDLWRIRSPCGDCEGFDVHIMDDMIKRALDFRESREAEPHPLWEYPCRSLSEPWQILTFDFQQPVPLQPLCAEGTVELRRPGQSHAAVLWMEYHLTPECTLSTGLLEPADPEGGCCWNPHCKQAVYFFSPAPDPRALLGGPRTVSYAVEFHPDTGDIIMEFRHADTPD
Also noted: method as in PMID 35482954. To be noted: heatmap of Figure 2; cited from earlier work.

A further test deals with T2, PRMT5/MEP50 complex (Homo sapiens, UniProt O14744).
T2 construct: residues PRMT5 2–637, C-terminus, and MEP50 2–342, C-terminus; FLAG (N); purchased Reaction Biology Corporation
Kind of test: HotSpot radioisotope-based filter assay, PRMT5. It counts as biochemical. How it is done: (§1) Then, ^3H-SAM (final concentration of 1 μM) was delivered into the reaction mixture to initiate the reaction. After incubation for 60 min at 30 °C, the reaction mixture was delivered to filter-paper for detection (as assessed by scintillation). Data were analyzed using Excel and GraphPad Prism 6.0 software (GraphPad Software Inc., San Diego, CA) for IC50 curve fits using sigmoidal dose vs response - variable slope (four parameters) equations.

A further test has as its target T3, PRMT3 (Homo sapiens, UniProt O60678).
T3 construct: PRMT3 (residues 2–531, C-terminus); with an N-terminal His-tag; His (N); purchased Reaction Biology Corporation
Kind of test: HotSpot radioisotope-based filter assay, PRMT3. It counts as biochemical. How it is done:
as §1

A further test has as its target T4, PRMT8 (Homo sapiens, UniProt Q9NR22).
T4 construct: (residues 61–394, C-terminus); with C- and N-terminal His-tags; His (N); His (C); purchased Reaction Biology Corporation
Kind of test: HotSpot radioisotope-based filter assay, PRMT8. The test is classed as biochemical. The protocol: as §1

The target of another test is T5, PRMT6 (Homo sapiens, UniProt Q96LA8).
T5 construct: PRMT6 (residues 2–375, C-terminus); with an N-terminal GST-tag; GST (N); purchased Reaction Biology Corporation
Kind of test: HotSpot radioisotope-based filter assay, PRMT6. It counts as biochemical. The protocol: as §1

The next test concerns the target T6, PRMT4 (Homo sapiens, UniProt Q86X55).
T6 construct: PRMT4 (residues 2–608, C-terminus); with an N-terminal GST-tag; GST (N); purchased Reaction Biology Corporation
T6 sequence (Q86X55 2-608): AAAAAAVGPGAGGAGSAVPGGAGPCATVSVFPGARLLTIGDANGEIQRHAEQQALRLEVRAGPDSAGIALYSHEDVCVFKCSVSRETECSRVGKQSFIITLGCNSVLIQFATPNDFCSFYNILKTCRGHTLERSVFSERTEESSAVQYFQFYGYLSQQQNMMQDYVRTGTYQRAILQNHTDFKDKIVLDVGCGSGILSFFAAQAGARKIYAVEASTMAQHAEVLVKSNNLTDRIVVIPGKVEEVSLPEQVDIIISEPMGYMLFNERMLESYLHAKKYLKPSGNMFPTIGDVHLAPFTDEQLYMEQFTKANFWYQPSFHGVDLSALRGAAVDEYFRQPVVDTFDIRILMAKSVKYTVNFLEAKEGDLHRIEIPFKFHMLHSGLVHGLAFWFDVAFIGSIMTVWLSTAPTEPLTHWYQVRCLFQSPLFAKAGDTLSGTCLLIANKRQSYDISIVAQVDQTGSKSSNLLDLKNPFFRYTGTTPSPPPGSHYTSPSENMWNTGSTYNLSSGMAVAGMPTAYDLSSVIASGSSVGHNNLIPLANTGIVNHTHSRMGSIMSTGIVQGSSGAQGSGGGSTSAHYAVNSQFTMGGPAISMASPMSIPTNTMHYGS
The test can be described thus: HotSpot radioisotope-based filter assay, PRMT4. The test is classed as biochemical. The protocol:
as §1

[1] abbreviates: Figure 2, from IC50 values of ref 31.

The IC50 is the concentration at which inhibition is half-maximal.

T4 sequence (Q9NR22 61-394): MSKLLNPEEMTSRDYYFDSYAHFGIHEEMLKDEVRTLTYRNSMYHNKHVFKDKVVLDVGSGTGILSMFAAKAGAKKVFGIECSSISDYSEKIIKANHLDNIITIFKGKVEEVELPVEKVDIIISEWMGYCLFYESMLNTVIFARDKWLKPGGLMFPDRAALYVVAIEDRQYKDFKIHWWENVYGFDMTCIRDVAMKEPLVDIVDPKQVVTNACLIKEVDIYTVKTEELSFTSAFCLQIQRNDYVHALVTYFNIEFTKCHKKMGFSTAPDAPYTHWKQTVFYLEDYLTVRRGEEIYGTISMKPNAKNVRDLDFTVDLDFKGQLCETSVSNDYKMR
T3 sequence (O60678 2-531): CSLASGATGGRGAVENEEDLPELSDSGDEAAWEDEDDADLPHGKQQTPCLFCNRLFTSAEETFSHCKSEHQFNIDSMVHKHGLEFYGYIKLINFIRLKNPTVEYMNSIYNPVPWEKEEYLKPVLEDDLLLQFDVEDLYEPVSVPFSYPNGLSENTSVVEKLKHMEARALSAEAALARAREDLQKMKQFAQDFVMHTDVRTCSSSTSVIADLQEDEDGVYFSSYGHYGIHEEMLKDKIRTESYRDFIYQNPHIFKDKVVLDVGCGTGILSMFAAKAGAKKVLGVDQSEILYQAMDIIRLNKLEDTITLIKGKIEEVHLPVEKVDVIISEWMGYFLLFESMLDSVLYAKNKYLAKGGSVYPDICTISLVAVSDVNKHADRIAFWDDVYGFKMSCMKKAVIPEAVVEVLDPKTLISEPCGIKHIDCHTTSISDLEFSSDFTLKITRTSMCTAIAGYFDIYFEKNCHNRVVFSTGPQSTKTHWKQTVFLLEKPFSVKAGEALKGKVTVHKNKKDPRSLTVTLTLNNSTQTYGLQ
T5 sequence (Q96LA8 2-375): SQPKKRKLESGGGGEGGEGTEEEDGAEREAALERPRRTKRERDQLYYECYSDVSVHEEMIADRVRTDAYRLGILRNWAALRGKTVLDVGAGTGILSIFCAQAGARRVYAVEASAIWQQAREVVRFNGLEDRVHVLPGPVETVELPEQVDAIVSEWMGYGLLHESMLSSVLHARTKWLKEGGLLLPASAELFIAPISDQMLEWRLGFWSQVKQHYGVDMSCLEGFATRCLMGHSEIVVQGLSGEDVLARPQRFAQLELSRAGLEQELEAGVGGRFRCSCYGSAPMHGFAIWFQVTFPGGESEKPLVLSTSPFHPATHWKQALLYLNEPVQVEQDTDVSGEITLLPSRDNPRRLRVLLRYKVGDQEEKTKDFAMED
T2 sequence (O14744 2-637): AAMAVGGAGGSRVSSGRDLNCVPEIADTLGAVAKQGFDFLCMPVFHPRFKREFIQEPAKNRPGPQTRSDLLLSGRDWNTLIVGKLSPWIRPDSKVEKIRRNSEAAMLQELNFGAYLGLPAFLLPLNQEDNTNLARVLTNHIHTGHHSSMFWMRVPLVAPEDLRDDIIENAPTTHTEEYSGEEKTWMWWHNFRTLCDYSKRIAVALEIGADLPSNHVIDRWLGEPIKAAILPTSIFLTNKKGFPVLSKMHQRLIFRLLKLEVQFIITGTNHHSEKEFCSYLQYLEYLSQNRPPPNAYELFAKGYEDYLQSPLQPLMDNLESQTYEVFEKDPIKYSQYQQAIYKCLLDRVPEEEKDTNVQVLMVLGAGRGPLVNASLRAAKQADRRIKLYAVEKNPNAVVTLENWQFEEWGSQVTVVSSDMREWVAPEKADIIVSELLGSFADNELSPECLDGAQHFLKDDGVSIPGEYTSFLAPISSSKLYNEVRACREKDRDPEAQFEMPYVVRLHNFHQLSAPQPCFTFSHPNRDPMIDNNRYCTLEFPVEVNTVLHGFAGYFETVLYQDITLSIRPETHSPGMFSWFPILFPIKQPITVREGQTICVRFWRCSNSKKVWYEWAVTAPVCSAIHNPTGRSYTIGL
T2 sequence (Q9BQA1 2-342 partner limits assumed): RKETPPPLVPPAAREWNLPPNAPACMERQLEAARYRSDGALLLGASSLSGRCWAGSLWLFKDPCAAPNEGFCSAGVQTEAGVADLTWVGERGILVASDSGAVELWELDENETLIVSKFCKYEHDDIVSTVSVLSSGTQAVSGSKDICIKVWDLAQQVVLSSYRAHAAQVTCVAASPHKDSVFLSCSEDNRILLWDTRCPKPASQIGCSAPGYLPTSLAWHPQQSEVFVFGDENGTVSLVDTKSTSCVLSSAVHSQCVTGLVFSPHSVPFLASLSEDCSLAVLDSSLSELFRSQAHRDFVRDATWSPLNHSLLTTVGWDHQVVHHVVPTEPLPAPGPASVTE

As for `COC(=O)c1cc(O)c2cc(NC(=O)NCCCNC(=N)NC[C@H]3O[C@@H](n4cnc5c(N)ncnc54)[C@H](O)[C@@H]3O)ccc2c1` [1a], at PRMT7, the IC50 was 315 nM.
For the molecule `COC(=O)c1cc(O)c2cc(NC(=O)NCCCCCNC(=N)NC[C@H]3O[C@@H](n4cnc5c(N)ncnc54)[C@H](O)[C@@H]3O)ccc2c1` [1c], on PRMT5/MEP50 complex (setting [1]), the “selectivity index for PRMT7 over PRMT5” value came to 234 fold. Besides, the “selectivity index for PRMT7 over PRMT3” value on PRMT3 (setting [1]) worked out at 97 fold. For the same molecule, at PRMT8 (setting [1]), the “selectivity index for PRMT7 over PRMT8” value is given as 27 fold. On PRMT6 (setting [1]), the “selectivity index for PRMT7 over PRMT6” value amounted to 455 fold. At PRMT4 (setting [1]), the “selectivity index for PRMT7 over PRMT4” value was determined as 2 fold.
Consider `COC(=O)c1cc(O)c2cc(NC(=O)NCCCNC(=N)NC[C@H]3O[C@@H](n4cnc5c(N)ncnc54)[C@H](O)[C@@H]3O)cc(C(F)(F)F)c2c1` [1j, Methyl 6-(3-(3-(3-(((2R,3S,4R,5R)-5-(6-Amino-9H-purin-9-yl)-3,4-dihydroxytetrahydrofuran-2-yl)methyl)guanidino)propyl)ureido)-4-hydroxy-8-(trifluoromethyl)-2-naphthoate], for which the IC50 at PRMT5/MEP50 complex (5 μM histone H2A, 3H-SAM 1 μM) was found to be 1010 nM; against PRMT3 (5 μM histone H4, 3H-SAM 1 μM) it was 14900 nM; against PRMT8 (5 μM histone H4, 3H-SAM 1 μM), 1970 nM; at PRMT6 (5 μM GST-GAR, 3H-SAM 1 μM) it was 49700 nM; against PRMT4 (5 μM histone H3, 3H-SAM 1 μM) it was 1460 nM.
